These results are taken from patent publication US20020161007A1, “Non-steroidal modulators of estrogen receptors” (priority 2001, published 2002).

Structures are written as SMILES. Where two headings read alike, the source gives them in different places.

Data set [1] has as its target T1, estrogen receptor (Rattus norvegicus, UniProt P06211).
T1 construct: Estrogen receptor-rich cytosol was obtained from the uteri; from tissue; host or cells: uterus of immature Sprague-Dawley rats (cytosol, 100,000 x g supernatant, DCC-treated)
T1 sequence (P06211 1-600): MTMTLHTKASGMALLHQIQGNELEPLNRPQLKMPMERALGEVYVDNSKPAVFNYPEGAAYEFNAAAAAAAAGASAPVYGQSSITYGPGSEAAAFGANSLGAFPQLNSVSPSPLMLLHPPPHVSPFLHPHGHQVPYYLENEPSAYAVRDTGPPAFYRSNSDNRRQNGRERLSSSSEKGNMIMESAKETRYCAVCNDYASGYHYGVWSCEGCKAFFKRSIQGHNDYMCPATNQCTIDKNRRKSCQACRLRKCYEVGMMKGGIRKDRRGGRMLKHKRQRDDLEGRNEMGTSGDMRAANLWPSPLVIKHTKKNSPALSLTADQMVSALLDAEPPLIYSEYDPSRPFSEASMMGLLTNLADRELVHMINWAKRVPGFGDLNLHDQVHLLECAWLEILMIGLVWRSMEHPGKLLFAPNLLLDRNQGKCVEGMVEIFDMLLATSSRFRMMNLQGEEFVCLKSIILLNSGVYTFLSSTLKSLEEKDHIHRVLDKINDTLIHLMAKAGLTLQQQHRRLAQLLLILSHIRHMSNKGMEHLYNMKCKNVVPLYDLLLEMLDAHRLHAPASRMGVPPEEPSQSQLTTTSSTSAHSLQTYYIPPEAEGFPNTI
The data set is described as follows: Displacement of tritium-labelled estradiol from estrogen receptor-rich uterine cytosol. Type of data set: binding. To be noted: mean ± SEM. Here is the method:
EXAMPLE 16—Determination of the binding affinity of compounds for estrogen receptor
Binding affinity (Ki value) for the estrogen receptor is measured by the ability of the compound to displace tritium-labelled estradiol from the receptor site.
Procedure Estrogen receptor-rich cytosol was obtained from the uteri of humanely sacrificed Sprague-Dawley immature rats (100-150 g mass). Briefly, the uteri were homogenized in 0.01 M sodium phosphate buffer, pH 7.3, containing 0.15 M NaCl, 0.1% gelatin and 0.01% sodium azide. The homogenate was then centrifuged at 100,000×g, […]. The cytosol thus isolated was pretreated with dextran coated charcoal (DCC on ice) and re-isolated using centrifugation, before freezing at−20° C. for later use. The protein concentration of cytosol samples was determined using a standard Bradford protein assay and an appropriate protein concentration range (150 μg protein in a total volume of 0.14 ml) for assay prepared. The required amounts of tritium-labeled (hot) and non-labeled (cold) estradiol were calculated using standard saturation curve techniques. A fresh buffer solution was prepared (Tris[tris(hydroxymethyl)-aminomethane]buffer-10 mM, pH 7.4, containing 1.5 mM EDTA and 3 mM sodium azide). Displacement testing of the compounds was facilitated through the incubation of a buffered solution of a known concentration of the test compound with hot estradiol solution (specific activity 157 Ci/mmol-final conc. 5 nM/ tube), followed by the addition of estrogen receptor-rich cytosol (150 μg protein). Total and non-specific binding control assays were determined in the absence and presence of 14 μl of a 0.2 mM cold estradiol solution respectively, properly corrected for the presence of ethanol in the test (displacement) samples. Samples were vortexed to ensure homogeneity and refrigerated at […] for 16-20 h. After this time the samples were retreated with DCC on ice and centrifuged for ten min at 3500×g. A 170 μl sample was pipetted from each vial and diluted with 10 ml scintillation fluid (Ecoscint). […] The samples thus prepared were counted for radioactivity by liquid scintillation counting. Binding values were obtained as counts per minute (cpm) and were converted to disintegrations per minute (dpm) and computationally analysed using sigmoidal curve fitting programs EBDA and LIGAND [14] to fit the displacement curves and to calculate binding affinity values (Ki) for the test compounds.
The following table illustrates the relative binding affinity values measured for selected compounds, based on their ability to displace radiolabelled estradiol from estrogen receptor-rich cytosol. Values are expressed as the mean determined±SEM.

For data set [2], the system named is human breast tumor MCF-7 cell line. The data set is described as follows: MTT antiproliferative assay on human MCF-7 cell line. Type of data set: cell-based. To be noted: for IC50: MTT inhibition of proliferation, mean of triplicate determinations, read-out: IC50 Range; for % Cell viability: 72 h, MTT, MCF-7. The source says: EXAMPLE 14—Determination of the antiproliferative effects on human MCF-7 cell lines.
MTT is a yellow tetrazolium salt which is taken up only by metabolically active cells and subsequently cleaved by mitochondrial dehydrogenases to yield a purple crystalline formazan dye. On solubilisation this purple color may be read spectrophotometrically at 570 nm. The absorbance measured at this wavelength is directly proportional to the amount of viable cells present.
Procedure : The human breast tumor MCF-7 cell line was cultured in Eagles minimum essential medium in a 5% CO2 atmosphere with 10% fetal calf serum. The medium was supplemented with 1% non-essential amino acids. The cells were trypsinized and seeded at a density of 1.5×10^4 into a 96-well plate and incubated at 37° C., 5% CO2 atmosphere for 24 h. […] Control wells contained the equivalent volume of the vehicle ethanol (1% v/v). The culture medium was then removed and the cells washed with 100 μl PBS and 50 μl MTT added, to reach a final concentration of 1 mg/ml MTT added. The cells were incubated for 2 h in darkness at […]. At this point solubilisation was begun through the addition of 200 μl DMSO and the cells maintained at room temperature in darkness for 20 min to ensure thorough color diffusion before reading the absorbance. The absorbance value of control cells (no added compound) was set to 100% cell viability. Graphs of absorbance versus cell density per well were prepared to assess cell viability.
On the technique in general: Formazan colour is commonly taken as a measure of viable cells.

The test system of data set [3] is human MCF-7 breast cancer cells. The data set is described as follows: LDH release cytotoxicity assay on human MCF-7 cells. Type of data set: cell-based. To be noted: 72 h. The source says: EXAMPLE 15—Determination of the cytotoxic effects on human MCF-7 cell lines.
Lactate dehydrogenase (LDH) is a cytosolic enzyme released upon cell lysis (death). Through the use of a commercial LDH assay kit, released LDH converts a substrate tetrazolium salt into a soluble red formazan product. The absorbance of this dye can be measured directly at 490 nm, the color formed is proportional to the number of lysed cells, and as such the extent of cytotoxic activity for the compound added may be assessed.
Procedure : As with the cell proliferation assay, human MCF-7 breast cancer cells were plated at a density of 1.5×10^4 per well in a 96-well plate, then incubated at 37° C., 5% CO2 atmosphere for 24 h. The cells were treated with the compound of choice at varying concentrations (1nM-100 μM), then incubated for a further 72 h. Following incubation 50 μl aliquots of medium were removed to a fresh 96-well plate. A 50 μl per well LDH substrate mixture was added and the plate left in darkness at room temperature for 30 minutes. Stop solution (50 μl) was added to all wells before reading the absorbance at 490 nm. A control of 100% lysis was determined for a set of untreated cells which were lysed through the addition of 20 μl lysis solution to the media 45 min prior to harvesting.
(LDH in the medium is a marker of cell lysis.)

The subject of data set [4] is MCF-7 cells. The data set is described as follows: FACS (propidium iodide) assay for apoptotic induction in MCF-7 cells. Type of data set: cell-based, human. To be noted: 50 μM, 16 hours. Here is the method: EXAMPLE 17—Assay for determining apoptotic induction by compounds
Fluorescence Activated Cell Sorting
Procedure Following treatment of MCF-7 cells with apoptotic compounds, the cells were washed three times with PBS before being trypsinised and centrifuged at 300 g for 5 min. They were then resuspended in 200 μl PBS, made up to 2 ml with ice-cold ethanol (70% v/v) and left to sit on ice for at least 1 h to fix them. Approximately 1 h prior to use they were centrifuged at 300 g for 3 min and the supernatant carefully pipeted off. The pellet was resuspended in 800 μl PBS. RNAase (100 μL; 1mg/mL) and 100 μL of the fluorescent dye propidium iodide (PI; 400 μg/mL) which binds DNA were added. The tubes were vortexed and incubated at 37° C. for 30 min. Flow cytometry was performed with a FACS calibur flow cytometer from Becton Dickinson. FACS data was analysed using the programme Cell Quest.

In general, Ki refers to a measure of affinity in units of concentration, obtained from inhibition or displacement. A high value points to lower affinity. By IC50 is commonly meant the midpoint of a concentration-inhibition curve. On to `CCC(Cc1ccccc1)=C(c1ccccc1)c1ccc(OCCN(C)C)cc1` (racemic) [Compound 1, 2-Benzyl-1-phenyl-1-[4-(dimethylaminoethoxy)phenyl]but-1-ene], for which the Ki in data set [1] stood at 459 ± 230 nM. Also, the IC50 in data set [2] (Homo sapiens, MCF7) is 10000 to 15000 nM.
For `CCC(Cc1ccccc1)=C(c1ccccc1)c1ccc(OCCN2CCCCC2)cc1` [Compound 4, 2-Benzyl-1-phenyl-1-[4-(pipyridinylethoxy)phenyl]but-1-ene], the “% Cell viability” value in data set [2] (1 nM) is reported as 103.8%; in data set [2] (10 nM), 100.3%; in data set [2] (100 nM), 91.14%; in data set [2] (1 μM) it was 85.13%; in data set [2] (10 μM), 29.11%; in data set [2] (50 μM), 1.58%. Further, the “% Cell viability” value in data set [2] (100 μM) was 1.27%. Further, the IC50 in data set [2] is 1000 to 5000 nM. The “% Cytotoxicity” value amounted to 3.67% in data set [3] (1 nM), 34.76% in data set [3] (10 μM), 49.44% in data set [3] (50 μM) and 49.14% in data set [3] (100 μM).
For the compound `CC/C(=C(\Cc1ccccc1)c1ccc(OCCN(C)C)cc1)c1ccccc1` [Compound 6, 1-Benzyl-2-phenyl-[(4-dimethyleaminoethoxy)phenyl]but-1-ene], the Ki in data set [1] worked out at 503 ± 98 nM. In data set [2] (Homo sapiens, MCF7), the IC50 lay within 20000 to 25000 nM.
The compound `CCC(=C(Cc1ccccc1)c1ccccc1)c1ccc(OCCN2CCCCC2)cc1` [Compound 14, 1-Benzyl-1-phenyl-2-[(4-pipyridinylethoxy)phenyl]but-1-ene] had a Ki in data set [1] of 2390 ± 350 nM. Also, the IC50 in data set [2] (Homo sapiens, MCF7) was 15000 to 20000 nM.
For `CCC(=C(Cc1ccc(OCCN2CCOCC2)cc1)c1ccccc1)c1ccccc1` [Compound 20] the same measures were 2480 ± 450 nM and 15000 to 20000 nM.
As to `CCC(Cc1ccccc1)=C(c1ccc(O)cc1)c1ccc(OCCN2CCCC2)cc1` [Compound 25, 4-{2-Benzyl-1-[4-(2-pyrrolidin-1-yl-ethoxy)-phenyl]-but-1-enyl}-phenol], the IC50 in data set [2] (Homo sapiens, MCF7) was in the range of 10 to 100 nM. In data set [4], the “% Cell cycle phases G1” value amounted to 51.3%, the “% Cell cycle phases G2/M” value stood at 21.0% and the “% Cell cycle phases S” value was found to be 7.6%. Also, the “% Cell cycle phases sub-G1” value in data set [4] (sub-G1 apoptotic peak) came out at 20.1%.
